# Entries after “also recorded” stand apart in the source; their conditions may differ. Structures can show the parent of a compound that is named as a salt. Where two headings read alike, the source gives them in different places.
# Tests used:
# [1] = Formation of metabolites 11R/11S in RLM (High Activity conditions); type: in vitro ADME, Sprague Dawley rats; conditions: LC-MS/MS
# Description: RLM Stability (High Activity). Pooled RLM from male Sprague Dawley rats (XenoTech R1000, lot #1910100) were used. Microsomal incubations were carried out in 96-well plates in 5 aliquots of 40 μL each (one for each time point). Liver microsomal incubation medium consisted of PBS (100 mM, pH 7.4), MgCl2 (3.3 mM), NADPH (3 mM), glucose-6-phosphate (5.3 mM), and glucose-6-phosphate dehydrogenase (0.67 units/mL), with 1.0 mg of liver microsomal protein per mL. Control incubations were performed by replacing the NADPH-cofactor system with PBS. Test compounds (1 μM, final solvent concentration 1.6%) were incubated with microsomes at 37° C., shaking at 100 rpm. Incubations were performed in duplicate. Five time points over 60 minutes were analyzed. […] Supernatants were analyzed for parent compound remaining using a fit-for-purpose liquid chromatography-tandem mass spectrometry (LC-MS/MS) method, with authentic samples of each analyte used for identity confirmation.
# This condition was also used for experiments measuring the formation of metabolite 11R from compounds 14R and 88R and formation of metabolite 11S from compounds 14S and 88S. The concentrations of 11R and 11S formed during the incubations were quantified using a fit-for-purpose liquid chromatography-tandem mass spectrometry (LC-MS/MS) method, with authentic samples of each analyte used for calibration and identity confirmation.
# [2] = molecular target: MK-801 site of NMDAR (Rattus norvegicus, UniProt P35439); conditions: read-out: NMDAR Ki ± SEM, from Ebert et al. 1997; cited from earlier work
# [3] = Oral bioavailability in rats, Method A; type: in vivo; conditions: plasma, Sprague Dawley rats
# Description: Animals. Male Sprague Dawley rats were used in these studies Animals were randomly assigned to treatment groups and were fasted overnight before oral dosing.
# Drugs. The test compound was dissolved in normal saline and administered intravenously (iv) or orally (po) at a dose of 10 mg/kg (calculated based on freebase) and at a volume of 5 mL/kg body weight. The compound was tested as the racemate (indicated by “rac” nomenclature).
# Sample Collection and Bioanalysis. Blood samples were collected through external jugular vein (via cannulation) at 0.083, 0.25, 0.5, 1, 2, 4, 8 and 24 h post-dose (total 8 time points/rat, 4 rats per administration route). At each time point, ˜0.2 mL of blood was withdrawn and transferred into a pre-labeled 0.5 mL of micro centrifuge tube containing 4 μL of 200 mM K2EDTA solution as anticoagulant and mixed gently by inverting the tube to facilitate mixing of anticoagulant with the blood. Blood samples were kept on ice until centrifugation. The collected blood samples were centrifuged at 4000 rpm for 10 min at 4° C. Plasma samples were separated after centrifugation, transferred into pre-labeled tubes, and stored at −70° C. until bioanalysis. For bio analysis, 50 μL aliquots of plasma study samples or calibration standards were added to pre-labeled eppendorf tubes and 10 μL of an internal standard solution (diclofenac, 5 μg/mL in 50:50 v/v methanol:water) was added. Samples were quenched with 500 μL of precipitation solution (0.1% v/v formic acid in acetonitrile) and vortexed. All the samples were centrifuged at 14,000 rpm for 10 minutes at 4° C. Following centrifugation, 5 μL of each clear supernatant was analyzed with a fit-for-purpose LC-MS/MS method, with authentic samples of the analyte used for calibration and identification.
# Data Analysis. Pharmacokinetic parameters were estimated using the non-compartmental analysis tool of Phoenix® WinNonlin software (Ver 8.1). The drug concentrations of samples below the lower limit of quantitation (LLOQ) were designated as zero.
# [4] = molecular target: MK-801 binding site of the N-methyl-D-aspartate receptor (NMDAR); assay: NMDAR radioligand binding with [3H]MK-801, Method A; design: species or system Wistar rat; conditions: MK-801 site, Method A, Wistar rat brain (minus cerebellum), 5.0 nM [3H]MK-801; read-out: NMDAR Ki ± SEM
# Description: Radioligand Binding—Method A. Affinity of the test compounds for NMDAR was determined in radioligand binding experiments with [^3H]MK-801 by Eurofins Panlabs, Inc., using methods adapted from the literature (Javitt et al. 1987; Reynolds et al. 1989) and under the conditions described in Table 12.
# [5] = tested on: mice (forced swim test); assay: Forced swim test in mice, 2-h pre-treatment; type: in vivo, CD-1 mice; conditions: s.c.
# Description: Animals. Male CD-1 mice, aged ˜8 weeks (body weight ˜25-30 g), were used in the experiments. Animals were singly housed under controlled temperatures and 12-hour light/dark cycles, with ad libitum food and water. These studies were carried out in strict accordance with the recommendations in the European Convention for the Protection of Vertebrate Animals Used for Experimental and Other Scientific Purposes. All efforts were made to minimize suffering.
# Drugs and Drug Administration. Imipramine hydrochloride was administered intraperitoneally (i.p.) at a dose of 20 mg/kg. Other compounds were tested as the racemates (indicated by “rac” nomenclature) and were administered subcutaneously (s.c.) with doses calculated based on the freebase. Normal saline was used as the vehicle and all compounds were administered at a volume of 5 mL/kg, 2 h before behavioral testing.
# Forced Swim Test (FST). Group size was n=10 per treatment, except for vehicle and rac-ketamine groups, which represented n=20 per treatment. Mice were placed individually in a glass cylinder measuring 19 cm wide by 30 cm tall and filled with 24° C. water to a depth of 18 cm. The activity of each mouse was video recorded during each 6-minute session and total immobility time was scored during the last 4 minutes of the session. The water was changed between each mouse to avoid any influence on behavior.
# Statistical Analysis. […]
smiles,measurement,setting,value
"[2H]C([2H])([2H])N[C@@]1(c2ccccc2)CCCCC1=O [Compound 88R, (R)-2-((methyl-d3)amino)-2-phenylcyclohexan-1-one]",formation of metabolites 11R and 11S compared to non-deuterated counterparts,[1],attenuated formation; also recorded: decreased formation
"CNC1(c2ccccc2Cl)CCCCC1=O (racemic) [rac-ketamine, racemic ketamine, reference compound]",Ki,[2],530 ± 78 nM
same,AUC(0-t),"[3]; male, rat, 10 mg/kg iv, read-out: AUC0-last (iv) (converted)",1340 ng·h/mL
same,half-life,"[3]; male, rat, 10 mg/kg iv, read-out: t1/2 (iv)",41.6 min
same,Cmax,"[3]; male, rat, 10 mg/kg po",190 ng/mL
same,AUC(0-t),"[3]; male, rat, 10 mg/kg po, read-out: AUC0-last (po) (converted)",121 ng·h/mL
same,half-life,"[3]; male, rat, 10 mg/kg po, read-out: t1/2 (po)",33.7 min
same,F,[3]; 10 mg/kg,9%
"CNC1(c2ccccc2)CCCCC1=O (racemic) [Compound 14rac, 2-(methylamino)-2-phenylcyclohexan-1-one hydrochloride]",Ki,[4],760 nM
same,immobility time in FST,"[5]; 2 h before test, last 4 minutes, relative to vehicle, hydrochloride",reduced time immobile; also recorded: induced antidepressant-like effects
same,potency at reducing immobility relative to rac-ketamine,[5]; 2 h pre-treatment,at least 30 fold
